Results published in patent EP4796557A1, “POLYPEPTIDE, BIOACTIVE CONJUGATE, AND PREPARATION METHOD THEREFOR AND USE THEREOF” (priority 2023, dated 2025).
Blank lines part the entries; values can stand above or below the compound they belong to. Square brackets hold non-standard residues; d marks the D form. Peptide text beside a SMILES is read from it. Cit = NC(=O)NCCC[C@H](N)C(=O)O

Experiments:
MMP2 = biological target: T1, MMP2 (Homo sapiens, UniProt P08253); experiment: Enzymolysis assay of polypeptides by MMP2 (RP-HPLC); type: biochemical; settings: test polypeptide 100 µmol, activated MMP2, 37°C, 4 h
T1 sequence (P08253 110-660): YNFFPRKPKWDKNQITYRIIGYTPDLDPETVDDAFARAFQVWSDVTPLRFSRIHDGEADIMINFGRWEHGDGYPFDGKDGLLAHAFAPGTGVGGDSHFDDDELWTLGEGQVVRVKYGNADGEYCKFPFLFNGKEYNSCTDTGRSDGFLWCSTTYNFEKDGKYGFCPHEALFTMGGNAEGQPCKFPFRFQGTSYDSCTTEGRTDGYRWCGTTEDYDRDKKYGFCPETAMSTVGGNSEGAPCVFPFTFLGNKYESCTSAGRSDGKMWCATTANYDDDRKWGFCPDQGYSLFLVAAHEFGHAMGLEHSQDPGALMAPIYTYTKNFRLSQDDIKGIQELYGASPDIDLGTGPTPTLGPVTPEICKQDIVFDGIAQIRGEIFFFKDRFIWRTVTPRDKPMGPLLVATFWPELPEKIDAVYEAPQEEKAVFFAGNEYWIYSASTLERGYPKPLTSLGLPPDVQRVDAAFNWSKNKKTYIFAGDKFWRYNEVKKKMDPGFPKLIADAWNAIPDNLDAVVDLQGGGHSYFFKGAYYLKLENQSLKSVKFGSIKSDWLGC
Experimental: (§1) First, MMP2 or MMP9 enzyme solution having a final concentration of 200 µg/mL was mixed with 4 mM APMA at a ratio of 1:1, placed in a 37°C water bath and incubated for 24 h to activate the MMP2 or MMP9 enzyme solution. Subsequently, the test polypeptide having a final concentration of 100 µmol was incubated with the activated MMP2 or MMP9 enzyme solution in a 37°C water bath for 4 h. After the reaction was complete, an equal volume of acetonitrile solution was added thereto, followed by RP-HPLC analysis.
(§2) The enzymolysis efficiency of the polypeptide was calculated based on the peak areas of the target peak before and after enzymolysis. The formula is as follows: Enzymolysis efficiency = […] [formula]

MMP9 = MMP9 (Homo sapiens, UniProt P14780); experiment: Enzymolysis assay of polypeptides by MMP9 (RP-HPLC); type: biochemical; settings: polypeptide 100 µmol with activated MMP9, 37°C, 4 h, RP-HPLC peak areas
Experimental: as §1, §2

MMP9, sequence (P14780 107-707 limits assumed, species assumed): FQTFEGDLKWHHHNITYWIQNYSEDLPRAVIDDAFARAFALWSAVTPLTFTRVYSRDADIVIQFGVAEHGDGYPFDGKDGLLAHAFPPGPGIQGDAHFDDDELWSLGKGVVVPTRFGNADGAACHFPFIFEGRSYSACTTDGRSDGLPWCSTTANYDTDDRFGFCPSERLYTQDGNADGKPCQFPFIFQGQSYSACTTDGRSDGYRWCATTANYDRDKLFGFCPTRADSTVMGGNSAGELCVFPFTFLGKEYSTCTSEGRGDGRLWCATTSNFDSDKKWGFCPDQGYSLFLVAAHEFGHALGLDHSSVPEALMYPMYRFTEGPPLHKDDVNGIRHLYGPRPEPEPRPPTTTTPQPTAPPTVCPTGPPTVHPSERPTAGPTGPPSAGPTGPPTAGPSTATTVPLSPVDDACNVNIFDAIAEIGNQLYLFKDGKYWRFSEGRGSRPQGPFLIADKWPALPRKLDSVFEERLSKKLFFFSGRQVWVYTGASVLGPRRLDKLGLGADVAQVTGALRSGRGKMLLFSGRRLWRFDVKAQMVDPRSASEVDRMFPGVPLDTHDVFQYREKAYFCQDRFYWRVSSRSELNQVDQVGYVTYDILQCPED

- Enzymolysis efficiency (%) (MMP2): 63.27%
- Enzymolysis efficiency (%) (MMP9): 94.69%
Structure (SMILES): CC(=O)N[C@@H](Cc1c[nH]cn1)C(=O)N1CCC[C@H]1C(=O)N[C@@H](CCCNC(=N)N)C(=O)N[C@@H](CC(N)=O)C(=O)N[C@@H](CC(C)C)C(=O)N[C@H](C(=O)N[C@@H](CCCNC(N)=O)C(N)=O)C(C)C [Compound 2-P15] (Ac-HPRNLV[Cit]-NH2)

- Enzymolysis efficiency (%) (MMP2): 53.54%
- Enzymolysis efficiency (%) (MMP9): 64.81%
Structure (SMILES): CC(=O)N[C@@H](Cc1c[nH]cn1)C(=O)N1CCC[C@H]1C(=O)N[C@@H](CCCNC(N)=O)C(=O)NCC(=O)N[C@@H](CC(C)C)C(=O)N[C@H](C(=O)N[C@@H](CCCNC(N)=O)C(N)=O)C(C)C [Compound 2-P16] (Ac-HP[Cit]GLV[Cit]-NH2)

- Enzymolysis efficiency (%) (MMP2): 42.87%
- Enzymolysis efficiency (%) (MMP9): 48.98%
Structure (SMILES): CC(=O)N[C@@H](Cc1c[nH]cn1)C(=O)N1CCC[C@H]1C(=O)N[C@@H](CCCNC(N)=O)C(=O)N1CCC[C@H]1C(=O)N[C@@H](CC(C)C)C(=O)N[C@H](C(=O)N[C@@H](CCCNC(N)=O)C(N)=O)C(C)C [Compound 2-P17] (Ac-HP[Cit]PLV[Cit]-NH2)

- Enzymolysis efficiency (%) (MMP2): 86.03%
- Enzymolysis efficiency (%) (MMP9): 93.84%
Structure (SMILES): CC(=O)N[C@@H](CO)C(=O)N1CCC[C@H]1C(=O)N[C@@H](CCCNC(=N)N)C(=O)NCC(=O)N[C@@H](CC(C)C)C(=O)N[C@H](C(=O)N[C@@H](CCCNC(N)=O)C(N)=O)C(C)C [Compound 2-P18] (Ac-SPRGLV[Cit]-NH2)

- Enzymolysis efficiency (%) (MMP2): 55.25%
- Enzymolysis efficiency (%) (MMP9): 73.74%
Structure (SMILES): CC(=O)N[C@@H](CO)C(=O)N1CCC[C@H]1C(=O)N[C@@H](CCCNC(N)=O)C(=O)NCC(=O)N[C@@H](CC(C)C)C(=O)N[C@H](C(=O)N[C@@H](CCCNC(N)=O)C(N)=O)C(C)C [Compound 2-P22] (Ac-SP[Cit]GLV[Cit]-NH2)

Second part, the compound before the results:

Structure (SMILES): CC(=O)N[C@@H](Cc1c[nH]cn1)C(=O)N1CCC[C@H]1C(=O)N[C@@H](CCCNC(=N)N)C(=O)N1CCC[C@H]1C(=O)N[C@@H](CC(C)C)C(=O)N[C@H](C(=O)N[C@@H](CCCNC(N)=O)C(N)=O)C(C)C [Compound 2-P14] (Ac-HPRPLV[Cit]-NH2)
- Enzymolysis efficiency (%) (MMP2): 54.65%
- Enzymolysis efficiency (%) (MMP9): 58.33%

Structure (SMILES): CC(=O)N[C@@H](CO)C(=O)N1CCC[C@H]1C(=O)N[C@@H](CCCNC(=N)N)C(=O)N[C@@H](CO)C(=O)N[C@@H](CC(C)C)C(=O)N[C@H](C(=O)N[C@@H](CCCNC(N)=O)C(N)=O)C(C)C [Compound 2-P19] (Ac-SPRSLV[Cit]-NH2)
- Enzymolysis efficiency (%) (MMP2): 55.76%
- Enzymolysis efficiency (%) (MMP9): 79.26%

Structure (SMILES): CC(=O)N[C@@H](CO)C(=O)N1CCC[C@H]1C(=O)N[C@@H](CCCNC(=N)N)C(=O)N1CCC[C@H]1C(=O)N[C@@H](CC(C)C)C(=O)N[C@H](C(=O)N[C@@H](CCCNC(N)=O)C(N)=O)C(C)C [Compound 2-P20] (Ac-SPRPLV[Cit]-NH2)
- Enzymolysis efficiency (%) (MMP2): 52.52%
- Enzymolysis efficiency (%) (MMP9): 57.87%

Structure (SMILES): CC(=O)N[C@@H](CO)C(=O)N1CCC[C@H]1C(=O)N[C@@H](CCCNC(=N)N)C(=O)N[C@@H](CC(N)=O)C(=O)N[C@@H](CC(C)C)C(=O)N[C@H](C(=O)N[C@@H](CCCNC(N)=O)C(N)=O)C(C)C [Compound 2-P21] (Ac-SPRNLV[Cit]-NH2)
- Enzymolysis efficiency (%) (MMP2): 70.46%
- Enzymolysis efficiency (%) (MMP9): 95.84%

Structure (SMILES): CC(=O)N[C@@H](CO)C(=O)N1CCC[C@H]1C(=O)N[C@@H](CCCNC(N)=O)C(=O)N[C@@H](CO)C(=O)N[C@@H](CC(C)C)C(=O)N[C@H](C(=O)N[C@@H](CCCNC(N)=O)C(N)=O)C(C)C [Compound 2-P23] (Ac-SP[Cit]SLV[Cit]-NH2)
- Enzymolysis efficiency (%) (MMP2): 33.63%
- Enzymolysis efficiency (%) (MMP9): 59.39%
